Key:
[1] = test system: Hep3B-OS8-hPDL1 / Jurkat-NFAT-PD1 cells; test: PDL1 Jurkat-NFAT reporter assay; format: cell-based; details: Homo sapiens; 6 hours, luciferase
Protocol: PDL1 Jurkat-NFAT Reporter Assay
a. Preparation of Hep3B-OS8-hPDL1 • 1. Hep3B-OS8-hPDL1 cells were cultured in 1640 medium supplemented with 10% fetal bovine serum, 1% penicillin and streptomycin, in which 100 μg/mL G418 and Hygromycin B were also added. • 2. Cells were re-suspended with RPMI 1640 medium containing 10% FBS and the cell density was adjusted to 1.25E5 cells/mL. • 3. Cells were seeded into 96-well flat bottom plate (1.25E4 cells/100 μL/well). b. Compounds Solutions Preparation • 4. Remove the medium from pre-plated Hep3B-OS8-PDL1 cells. Wash once with 200 μL Assay Medium. • 5. Prepare the Compounds dilutions in RPMI 1640 medium with 10% FBS according to the Layout. • 6. Add compounds into each well in a volume of 50 μL in 9 concentrations (3, 1, 0.3, 0.1, 0.03, 0.01, 0.003, 0.001 and 0.0003 μM)}. Keytruda will be included as positive control at the concentration of 5 μg/mL. • 7. Incubate for 20-30 min at 37° C., 5% CO2. c. Preparation of Jurkat-NFAT-PD1 • 8. Jurkat-NFAT-PD1 cells were cultured in 1640 medium supplemented with 10% fetal bovine serum, 1% penicillin and streptomycin, in which 1000 μg/mL Hygromycin B and 0.3 μg/mL puromycin were also added. • 9. On the second day of assay, the cells were re-suspended with RPMI 1640 medium containing 10% FBS and the cell density was adjusted to 2.5E5 cells/mL. • 10. […]

[2] = test system: Hep3B-OS8-hPDL1 cells and CD3+ T cells; test: Hep3B-OS8-hPDL1 and T cells co-culture assay (IFN-γ by ELISA); format: cell-based; details: Homo sapiens, T-cell, 72 hours, read-out: Tumor and T Cell EC50 (nm)
Protocol: a. Hep3B-OS8-hPDL1 and T Cells Co-Culture Assay
• 1. Hep3B-OS8-hPDL1 cells were cultured in 1640 medium supplemented with 10% fetal bovine serum, 1% penicillin and streptomycin, in which 100 μg/mL G418 and Hygromycin B were also added. • 2. Hep3B-OS8-hPDL1 cells were harvested and treated with 10 μg/mL mitomycin C at 37° C. for 1.5 h, and the cells were then washed thoroughly with PBS for four times. • 3. Cells were re-suspended with RPMI 1640 medium containing 10% FBS and the cell density was adjusted to 5E5 cells/mL. • 4. Cells were seeded into 96-well flat bottom plate (2.5E4 cells/50 μL/well). b. CD3+ T Cells Isolation (30 mL Blood) • 5. The human blood sample from an individual donor is diluted by the same volume of sterile PBS, for instance add 25 mL sterile PBS into 25 mL fresh whole blood and mix sufficiently by gentle shake. • 6. Transfer 15 mL Lymphoprep medium into a new 50 mL centrifuge tube. • 7. Add the diluted blood sample as soft as possible onto the surface of the Ficoll medium to make sure there is a clear dividing line between the two liquids, and the volume ratio between Ficoll and diluted blood (30 mL) is 1:2. • 8. Move the tube gently to centrifuge, at 1000×g, 25 min, 20° C., with the acceleration (5) and Min deceleration (0) settings during the centrifugation. • 9. Four interfaces in all could be observed after the centrifugation, which are layers of plasma, mononuclear cells, the Ficoll medium and RBCs from top to bottom, and move the tube as gently as possible so as keep the four interfaces separated. Absorb and transfer the second layer of mononuclear cells into another new sterile centrifuge tube carefully, and absorb certain volume of plasma instead of the Ficoll medium if inevitable. • 10. Add sterile PBS of the three times the volume of PBMCs in the tube with PBMC. • 11. Wash the cells twice with 5-10 mL PBS before cell counting with cytometer. Centrifuge at 350×g, 10 min, 20° C. With the acceleration (5) and deceleration (5) settings during the centrifugation. • 12. Resuspend the cells with recommended medium and adjust the density of the PBMCs to the final concentration of 5E7 cells/mL. • 13. Isolate CD3+ T cells with EasySep™ Human T Cell Isolation Kit (STEMCELL Technologies #17951), and the cells were seeded into 96-well flat bottom plate (5E4 cells/100 μL/well). c. Compounds solutions preparation • 14. Prepare the Compounds dilutions in RPMI 1640 medium with 10% FBS according to the Layout. 15. Add compounds into each well in a volume of 50 μL. {3 compounds (GLC01-258, GLC01-269, GLC01-465) in 7 concentrations (0.03, 0.1, 0.3, 1, 3, 10 and 30 μM) and 6 compounds (GLC01-411, GLC01-292, GLC01-445, GLC01-475, GLC01-470 and GLC01-468) in the same concentration (1 μM)}. • 16. […]

Row | EC50 [1] [nM] | EC50 [2] [nM] | SMILES
1 | 0.3 | 1.2 | O=C(O)[C@H](CO)NCCN1C(=O)COc2cc(-c3cccc(-c4cccc(-c5ccc6c(c5)OCC(=O)N6CCN[C@@H](CO)C(=O)O)c4Cl)c3Cl)ccc21 [Compound 465]
2 | 111 | 325 | O=C1COc2cc(-c3cccc(-c4cccc(-c5ccc6c(c5)OCC(=O)N6C[C@H]5CCCN5)c4Cl)c3Cl)ccc2N1C[C@H]1CCCN1 [Compound 529]
